The values that follow come from ChEMBL document CHEMBL1201862, “PubChem BioAssay data set” (2004).

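Dose response: 5 concentrations. Exposure: 48 h. Format: 96-well plates. Endpoint: linear interpolation; highest concentration if not reached. GI50 = concentration required for 50% inhibition of growth.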 Calls of active or inactive are those of the source. No stated cut-off is given here; in the data, active = GI50 up to about 1.1 µM and inactive = higher.

Test systems include TK-10; HOP-62; HOP-92; CAKI-1; T47D; NCI/ADR-RES; MOLT-4; MDA-MB-435; 786-0; SK-OV-3; HL-60; UO-31; OVCAR-4; OVCAR-5; NCI-H23; SF-268; RXF 393; LOX IMVI; CCRF-CEM; SK-MEL-2.
What all share (assay): DTP human tumour cell line panel, 48 h

The term GI50 denotes the concentration giving 50% growth inhibition. With `CCCCCCCCCCCCCCCC[N+](C)(C)Cc1ccc(F)cc1`, the GI50 in the assay with TK-10 is 1.48 µM (inactive); in the assay on HOP-62, 1.5 µM (inactive); with HOP-92, 1.27 µM (inactive); in the assay on CAKI-1, 2.7 µM (inactive); with T47D it was 3.33 µM (inactive); in the assay on NCI/ADR-RES, 18.1 µM (inactive). The GI50 in the assay with MOLT-4 was 1.46 µM (inactive); in the assay on MDA-MB-435 it was 1.84 µM (inactive); in the assay with 786-0 it was 1.47 µM (inactive); in the assay with SK-OV-3 it was 2.2 µM (inactive); in the assay with HL-60, 0.184 µM (active); in the assay on UO-31, 6.84 µM (inactive). In addition, the GI50 in the assay with OVCAR-4 is 1.55 µM (inactive); in the assay with OVCAR-5 it was 1.83 µM (inactive); in the assay with NCI-H23, 2.16 µM (inactive); with SF-268 it was 1.56 µM (inactive); with RXF 393, 1.11 µM (active); in the assay on LOX IMVI, 1.47 µM (inactive). In addition, the values for the GI50 in the assay with CCRF-CEM and in the assay with SK-MEL-2 were 0.771 µM (active) and 1.62 µM (inactive), respectively.

As to `COc1ccccc1C1c2cc3c(cc2OC2(OC)COC(=O)C12)OCO3` (stereo not given), the GI50 with TK-10 was 39.4 µM (inactive); with HOP-62 it was 22.2 µM (inactive); with HOP-92, 40.4 µM (inactive); with CAKI-1, 20 µM (inactive); in the assay with T47D, 34.5 µM (inactive); in the assay with NCI/ADR-RES, 6.55 µM (inactive). The GI50 with MOLT-4 is 5.33 µM (inactive); with MDA-MB-435, 2.27 µM (inactive); in the assay on 786-0, 19.1 µM (inactive); with SK-OV-3 it was 18.8 µM (inactive); with HL-60, 3.03 µM (inactive); in the assay on UO-31 it was 14.6 µM (inactive). The GI50 with OVCAR-4 was 19.1 µM (inactive); in the assay on OVCAR-5, 44.1 µM (inactive); in the assay with NCI-H23 it was 29.2 µM (inactive); in the assay with SF-268 it was 14.3 µM (inactive); in the assay with RXF 393, 12.3 µM (inactive); in the assay on LOX IMVI it was 9.02 µM (inactive). The GI50 was 12.9 µM (inactive) with CCRF-CEM and 7.43 µM (inactive) in the assay with SK-MEL-2.

Take `O=S(=O)(NNc1ccccc1)c1ccccc1`: the GI50 is > 100 µM (inactive) in the assay on TK-10; 12.4 µM (inactive) in the assay with HOP-62; 19.1 µM (inactive) in the assay on HOP-92; 1.28 µM (inactive) in the assay on CAKI-1; 12.6 µM (inactive) in the assay on T47D; 10 µM (inactive) in the assay with NCI/ADR-RES. In addition, the GI50 is 26.5 µM (inactive) in the assay with MOLT-4; 4.81 µM (inactive) with MDA-MB-435; 52.6 µM (inactive) with 786-0; 65.3 µM (inactive) in the assay on SK-OV-3; 1.66 µM (inactive) in the assay with HL-60; 10.6 µM (inactive) in the assay with UO-31. The GI50 with OVCAR-4 was 2.62 µM (inactive); in the assay with OVCAR-5, 17.1 µM (inactive); in the assay on NCI-H23 it was 25.5 µM (inactive); with SF-268, 38.5 µM (inactive); in the assay on RXF 393, 7.73 µM (inactive); in the assay with LOX IMVI, 0.834 µM (active). The values for the GI50 in the assay with CCRF-CEM and in the assay on SK-MEL-2 were 14.3 µM (inactive) and 3.26 µM (inactive), respectively.

In the case of `CCOC(=O)/C=C\[C@H]1OC(C)(C)O[C@H]1[C@H](O)[C@H]1COC(C)(C)O1`, the GI50 in the assay with TK-10 is 16.1 µM (inactive); with HOP-62, 66.4 µM (inactive); in the assay on HOP-92 it was 13.2 µM (inactive); in the assay with CAKI-1, 2.57 µM (inactive); with T47D, 20.5 µM (inactive); in the assay with NCI/ADR-RES, 32.5 µM (inactive). Besides, the GI50 in the assay on MOLT-4 is 19.2 µM (inactive); in the assay with MDA-MB-435, 17.3 µM (inactive); in the assay on 786-0, 19.4 µM (inactive); in the assay on SK-OV-3, > 100 µM (inactive); with HL-60, 22.8 µM (inactive); with UO-31, 18.4 µM (inactive). Besides, the GI50 in the assay with OVCAR-4 is 19.3 µM (inactive); in the assay on OVCAR-5, 17.1 µM (inactive); in the assay on NCI-H23, 21.7 µM (inactive); in the assay with SF-268, 25.4 µM (inactive); in the assay on RXF 393, 20 µM (inactive); in the assay with LOX IMVI it was 20 µM (inactive). Besides, the GI50 is 10.5 µM (inactive) with CCRF-CEM and 22.3 µM (inactive) with SK-MEL-2.

With `Cc1ccccc1-n1c(=O)c2ncn(CCCl)c2n(-c2ccccc2C)c1=S`, the GI50 with TK-10, in the assay on HOP-62, in the assay with HOP-92, with CAKI-1, with T47D and with NCI/ADR-RES was > 100 µM (inactive) in each case. Besides, the GI50 in the assay on MOLT-4, in the assay with MDA-MB-435, with 786-0, with SK-OV-3, with HL-60 and in the assay with UO-31 was > 100 µM (inactive) in each case. Also, the GI50 in the assay on OVCAR-4, with OVCAR-5, in the assay with NCI-H23, with SF-268, in the assay with RXF 393 and in the assay on LOX IMVI was > 100 µM (inactive) throughout. Also, the GI50 with CCRF-CEM and with SK-MEL-2 was > 100 µM (inactive) in each case.

`O=C1Nc2ccccc2/C1=C1/Nc2ccccc2/C1=N\OCCNCC(O)C(O)C(O)C(O)CO` (stereo not given): the GI50 with TK-10 was 35.8 µM (inactive); in the assay with HOP-62 it was 11.7 µM (inactive); in the assay with HOP-92 it was 10.1 µM (inactive); in the assay with CAKI-1, 38.5 µM (inactive); in the assay with T47D, 6.7 µM (inactive); in the assay on NCI/ADR-RES it was > 50 µM (inactive). Also, the GI50 was 12.9 µM (inactive) with MOLT-4; 9.86 µM (inactive) with MDA-MB-435; 18.1 µM (inactive) in the assay on 786-0; 9.66 µM (inactive) with SK-OV-3; 5.5 µM (inactive) in the assay on HL-60; > 50 µM (inactive) in the assay with UO-31. Further, the GI50 is 31.5 µM (inactive) in the assay with OVCAR-4; > 50 µM (inactive) in the assay on OVCAR-5; 10.4 µM (inactive) in the assay on NCI-H23; 11.9 µM (inactive) in the assay on SF-268; 12.5 µM (inactive) with RXF 393; 8.53 µM (inactive) in the assay on LOX IMVI. Moreover, the GI50 in the assay with CCRF-CEM is 10.5 µM (inactive); in the assay on SK-MEL-2 it was 7.91 µM (inactive).

In the case of `O=C1C=CC(=O)c2c(O)c(N(CCCl)CCCl)c(Cl)c(O)c21`, the GI50 was 3.35 µM (inactive) in the assay on TK-10; > 9.48 µM (inactive) with HOP-62; 2.98 µM (inactive) with HOP-92; 4.66 µM (inactive) with CAKI-1; 4.71 µM (inactive) in the assay with T47D; 6.89 µM (inactive) in the assay on NCI/ADR-RES. Moreover, the GI50 in the assay with MOLT-4 was > 5.31 µM (inactive); in the assay on MDA-MB-435 it was 4.31 µM (inactive); with 786-0, 4.54 µM (inactive); with SK-OV-3 it was > 10 µM (inactive); with HL-60 it was > 6.05 µM (inactive); in the assay on UO-31 it was > 5.75 µM (inactive). In addition, the GI50 in the assay with OVCAR-4 was 4.49 µM (inactive); with OVCAR-5 it was > 7.21 µM (inactive); with NCI-H23 it was 5.07 µM (inactive); in the assay on SF-268, 5.46 µM (inactive); in the assay with RXF 393, > 5.2 µM (inactive); in the assay on LOX IMVI, 4.49 µM (inactive). The GI50 is 1.25 µM (inactive) with CCRF-CEM and 4.78 µM (inactive) in the assay with SK-MEL-2.

`COC1=CC2(C=CC1=O)CCNC1=C2C(=O)c2nc[nH]c2C1=O` (stereo not given): the GI50 with TK-10, with HOP-62, in the assay with HOP-92, with CAKI-1, with T47D and in the assay on NCI/ADR-RES was > 100 µM (inactive) each time. Besides, the GI50 in the assay on MOLT-4, in the assay on MDA-MB-435, in the assay on 786-0, in the assay on SK-OV-3, in the assay on HL-60 and in the assay with UO-31 was > 100 µM (inactive) in each case. Further, the GI50 in the assay on OVCAR-4, in the assay on OVCAR-5, in the assay on NCI-H23, in the assay with SF-268, in the assay with RXF 393 and in the assay with LOX IMVI was > 100 µM (inactive) each time. In addition, the GI50 in the assay with CCRF-CEM and in the assay on SK-MEL-2 was > 100 µM (inactive) in each case.

Take `CC1(C)[C@@H]2C[C@H]1c1cnc(-c3ccccn3)cc1C2[C@@H]1c2cc(-c3ccccn3)ncc2[C@@H]2C[C@H]1C2(C)C` (stereo not given in full): the GI50 in the assay on TK-10 was 16.6 µM (inactive); in the assay with HOP-62 it was 39.1 µM (inactive); with HOP-92 it was > 100 µM (inactive); in the assay on CAKI-1, 70.5 µM (inactive); in the assay with T47D, 55.1 µM (inactive); in the assay on NCI/ADR-RES it was 37.7 µM (inactive). Also, the GI50 is 44 µM (inactive) in the assay on MOLT-4; 76 µM (inactive) in the assay with MDA-MB-435; 86.1 µM (inactive) with 786-0; 73.6 µM (inactive) in the assay on SK-OV-3; 36.4 µM (inactive) in the assay with HL-60; 24.3 µM (inactive) in the assay on UO-31. The GI50 with OVCAR-4 was 20.6 µM (inactive); in the assay with OVCAR-5, > 100 µM (inactive); in the assay with NCI-H23, 41.2 µM (inactive); with SF-268, 29.3 µM (inactive); in the assay on RXF 393, > 100 µM (inactive); with LOX IMVI it was > 100 µM (inactive). Also, the results for the GI50 in the assay on CCRF-CEM and in the assay with SK-MEL-2 were 47.5 µM (inactive) and 68.9 µM (inactive), respectively.

With `CC(C)OC(=O)c1cc(NC(=S)OC(C)C)ccc1Cl`, the GI50 in the assay on TK-10 is 22.8 µM (inactive); in the assay on HOP-62, 90.4 µM (inactive); with HOP-92 it was 18.4 µM (inactive); with CAKI-1, 15.1 µM (inactive); in the assay with T47D, 23 µM (inactive); with NCI/ADR-RES, 20.7 µM (inactive). Also, the GI50 in the assay on MOLT-4 was 11.9 µM (inactive); in the assay with MDA-MB-435, 17.1 µM (inactive); with 786-0, 23.4 µM (inactive); with SK-OV-3, 37 µM (inactive); in the assay on HL-60 it was 16.3 µM (inactive); in the assay with UO-31, 20.8 µM (inactive). Moreover, the GI50 in the assay with OVCAR-4 was 23.9 µM (inactive); in the assay with OVCAR-5 it was 25.1 µM (inactive); with NCI-H23, 20.5 µM (inactive); with SF-268, 26.9 µM (inactive); with RXF 393, 22.3 µM (inactive); in the assay with LOX IMVI, 17.2 µM (inactive). Further, the GI50 was 39.3 µM (inactive) in the assay on CCRF-CEM and 22.4 µM (inactive) in the assay with SK-MEL-2.
